Here are results for six compounds from publication PMC6152180, “Design, Synthesis and Evaluation of Hesperetin Derivatives as Potential Multifunctional Anti-Alzheimer Agents” (Molecules : A Journal of Synthetic Chemistry and Natural …, 2017).

For series [1], the target named is T1, AChE (Electrophorus electricus, UniProt O42275).
T1 construct: purchased Sigma-Aldrich C3389-2KU
Put plainly: biochemical. The following applies: for IC50: AChE from electric eel, means ± SEM of three experiments, read-out: AchE Inhibition, (IC50); for Selective Index: Selectivity Index = IC50 (BuChE)/IC50 (AChE).
Procedure: (§1) Acetylcholinesterase (AChE, E.C. 3.1.1.7, obtained from electric eel) was purchased from Sigma-Aldrich (St. Louis, MO, USA, product code: C3389-2KU). Butyrylcholinesterase (BuChE, E.C. 3.1.1.8, obtained from equine serum) was purchased from Aladdin (Shanghai, China, product code: B128570-2KU). […] The compounds were dissolved in a minimum volume of DMSO (1%) and then diluted in 0.1 M KH2PO4/K2HPO4 buffer (pH 8.0) to provide a final concentration range.
(§2) Enzyme solutions were prepared to give 2.0 units/ mL in 2 mL aliquots. The assay medium contained phosphate buffer, pH 8.0 (1 mL), 50 μL of 0.01 M DTNB, 10 μL of enzyme, and 50 μL of 0.01 M substrate (ATC). The substrate was added to the assay medium containing enzyme, buffer, and DTNB with inhibitor after 15 min of incubation time. […] In vitro BuChE assay used the similar method described above [31]. Each concentration was assayed in triplicate.

For series [2], the target named is T2, BuChE (Equus caballus, UniProt P81908).
T2 construct: purchased Aladdin B128570-2KU; host or cells: equine serum
T2 sequence (P81908 whole entry): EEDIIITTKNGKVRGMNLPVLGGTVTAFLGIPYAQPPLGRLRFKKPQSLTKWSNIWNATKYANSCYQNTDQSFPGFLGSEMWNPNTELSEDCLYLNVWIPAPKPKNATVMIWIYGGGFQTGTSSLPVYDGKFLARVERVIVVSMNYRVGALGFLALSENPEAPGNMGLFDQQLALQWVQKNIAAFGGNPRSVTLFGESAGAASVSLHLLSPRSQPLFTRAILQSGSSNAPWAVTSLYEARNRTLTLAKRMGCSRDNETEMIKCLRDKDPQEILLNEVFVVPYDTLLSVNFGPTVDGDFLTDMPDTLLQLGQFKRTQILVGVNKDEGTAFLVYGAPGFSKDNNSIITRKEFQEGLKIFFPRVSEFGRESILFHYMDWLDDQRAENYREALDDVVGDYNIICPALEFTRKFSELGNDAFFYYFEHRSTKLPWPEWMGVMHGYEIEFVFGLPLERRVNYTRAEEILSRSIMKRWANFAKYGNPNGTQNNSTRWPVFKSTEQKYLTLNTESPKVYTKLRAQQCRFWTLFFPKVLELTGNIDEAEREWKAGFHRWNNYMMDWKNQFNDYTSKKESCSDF
Kind of series: biochemical. The following applies: BuChE from equine serum; means ± SEM of three experiments; read-out: BuChE Inhibition, (IC50).
Procedure: as §1, §2

Series [3] is described as follows: in vitro. The settings on record: human.
Procedure: Thus, we used the methylthiazolyl tetrazolium (MTT) method [30] to perform a neurocyte (SH-SY5Y) toxicity test in vitro.
The SH-SY5Y cell line was seeded on 96-well plates at a density of 10^4 cells/well. […] Subsequently, 10 μL of 5 mg/mL MTT solution was added to each well and further incubated for 4 h at 37 °C. The solution was carefully removed, and each well was treated with DMSO (200 μL for each well). The optical density of the wells was then read on the microplate reader at 570 nm. All the tested compounds were performed in triplicate.
The target of series [4] is Aβ (1–42) (Homo sapiens, UniProt P05067). Kind of series: Inhibition of self-mediated Aβ (1–42) aggregation (thioflavin T fluorescence assay). The settings on record: for inhibition at 20 µM: read-out: Aβ (1–42) aggregation inhibition rate.
Sequence of Aβ (1–42) (P05067 672-713): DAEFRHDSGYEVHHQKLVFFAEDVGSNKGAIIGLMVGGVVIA
Procedure: A thioflavin T based fluorometric assay was performed to investigate the self-mediated Aβ (1–42) aggregation [33]. Aβ (1–42) peptide (Sigma-Aldrich) was dissolved in phosphate buffer (0.01 M, pH 7.40) to obtain a 20 μM solution. Compounds were firstly dissolved in DMSO to obtain a 10 mM solution. Inhibitors and the final concentration of Aβ (1–42) were 20 μM. After incubated in 37 °C for 48 h, thioflavin-T (5 μM in 50 mM glycine-NaOH buffer, pH 8.00) was added. […] Each inhibitor was run in triplicate. The fluorescence intensities were recorded, and the percent inhibition on aggregation was calculated by the following expression: (1 − IFi/IFc) × 100% in which IFi and IFc were the fluorescence intensities obtained for absorbance in the presence and absence of inhibitors, respectively, after subtracting the fluorescence of respective blanks.
Series [5] concerns the target T1, AChE. Put plainly: Kinetic characterization of AChE inhibition (Lineweaver-Burk plot). Format: biochemical. The following applies: Lineweaver–Burk plots.
Procedure: Three different concentrations (2, 4 and 8 nM) of substrate were mixed in the 1 mL 0.1 M KH2PO4/K2HPO4 buffer (pH 8.0), containing 10 μL AChE, 50 μL of DTNB, and 50 μL substrate. […] A parallel control with no inhibitor in the mixture, allowed adjusting activities to be measured at various times.
Series [6] deals with PC12 cells. Kind of series: Protective effect against H2O2-induced cell death in PC12 neurons (MTT). Format: cell-based. As for the experimental part: The neuroprotective activity of compound 4f against oxidative stress-induced cell death in PC12 cells was evaluated. Compound 4f was evaluated at concentrations of 1, 2.5 and 5 µM, and quercetin was used as the reference compound. […] […].
PC12 cells were cultured in DMEM media with 10% fetal calf serum (FCS, Hyclone) containing 100 units/mL penicillin and […] streptomycin under 5% CO2 at 37 °C. To produce oxidative stress, H2O2 was freshly prepared from a 30% stock solution prior to each experiment. PC12 cells were plated in cell culture plates at a density of 10^5 cells per well. In our study, 0.2 mM H2O2 were treated with PC12 cells for 24 h in the injury module, while the compound group cells were pretreated with different concentrations (1, 2.5 and 5 μM) of the compound 4f for 2 h. The control group cells were treated with the same medium without H2O2 or compound 4f. The cell viability of PC12 cells was evaluated using MTT assay. After, PC12 cells were cultured with 5 mg/mL MTT and incubated for 4 h at 37 °C. Then the cells were lysed in dimethyl sulfoxide DMSO ([…]). The absorbance was detected at 570 nm by a microplate reader (Bio-Tek). PC12 cells were cultured without 4f or H2O2 as control group and the results were expressed by percentage of control.

A short description of series [7]: Oxygen radical absorbance capacity-fluorescein (ORAC-FL) assay. The settings on record: Trolox equivalents, Trolox = 1.
Procedure: Vitamin E analogue Trolox was used as the standard, and the results were expressed as Trolox equivalents.
The anti-oxidation activity was tested by using the oxygen radical absorbance capacity-fluorescein (ORAC-FL) assay [25, 32]. All the ORAC-assays measure antioxidant scavenging activity against peroxyl radical induced by 2,2′-azobis (2-amidinopropane) dihydrochloride (AAPH) at 37 °C.
The reaction was conducted with 75 mM phosphate buffer (pH 7.4) and the final reaction mixture was 200 μL. Fluorescein (120 μL, 300 nM final concentration) and antioxidant (20 μL) were placed in the wells of a black 96-well plate, and the mixture was incubated for 15 min at 37 °C. Then AAPH solution (60 μL, 12 mM final concentration) was added rapidly. […] 6-hydroxy-2,5,7,8-tetramethylchroman-2-carboxylic acid (Trolox) was used as a standard (1–5 μM, final concentration). A blank (FL + AAPH) using phosphate buffer instead of antioxidant and Trolox calibration were carried out in each assay. The samples were measured at different concentrations (1–5 μM), and at least three independent assays were performed for each sample. Fluorescence measurements were normalized based on the curve of the blank (without antioxidant). Antioxidant curves (fluorescence versus time) were normalized to the curve of the blank in the same assay, and then the area under the fluorescence decay curve (AUC) was calculated. The net AUC of a sample was obtained by subtracting the AUC from the blank. ORAC-FL values were expressed as Trolox equivalents by using the standard curve calculated for each sample, where the ORAC-FL value of Trolox was taken as one, indicating the antioxidant potency of the test compounds.

Where two headings read alike, the source gives them in different places.

T1 sequence (O42275 24-633): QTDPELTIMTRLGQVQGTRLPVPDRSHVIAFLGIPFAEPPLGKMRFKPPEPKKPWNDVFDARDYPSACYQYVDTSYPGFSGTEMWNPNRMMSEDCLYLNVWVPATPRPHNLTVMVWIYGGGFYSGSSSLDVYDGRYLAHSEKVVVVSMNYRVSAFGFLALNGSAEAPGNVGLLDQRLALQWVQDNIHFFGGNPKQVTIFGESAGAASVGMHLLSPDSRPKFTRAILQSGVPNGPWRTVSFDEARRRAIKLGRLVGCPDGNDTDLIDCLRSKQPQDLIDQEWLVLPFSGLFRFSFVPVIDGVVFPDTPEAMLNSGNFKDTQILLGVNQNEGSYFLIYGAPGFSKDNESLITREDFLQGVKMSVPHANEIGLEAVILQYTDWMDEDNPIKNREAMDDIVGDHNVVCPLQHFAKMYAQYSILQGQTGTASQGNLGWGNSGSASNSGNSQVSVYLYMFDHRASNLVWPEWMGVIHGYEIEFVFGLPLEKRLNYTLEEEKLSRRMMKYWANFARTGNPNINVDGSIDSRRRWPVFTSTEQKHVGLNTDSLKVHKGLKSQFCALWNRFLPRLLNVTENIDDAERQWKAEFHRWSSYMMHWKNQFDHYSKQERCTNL

As for `COc1ccc(C2CC(=O)c3c(O)cc(OCC(=O)NCc4ccccc4)cc3O2)cc1O` (stereo not shown) [Compound 4a, N-Benzyl-2-[5-hydroxy-2-(3-hydroxy-4-methoxyphenyl)-4-oxochroman-7-yloxy]-acetamide], in series [1], the concentration for half-maximal inhibition (IC50) is 25.5 ± 1.32 nM and the “Selective Index” value is on record as 133. The IC50 in series [2] was found to be 3400 ± 56 nM. Moreover, in series [3], the viability at 48 h, 1 µM stood at 98.2 ± 8.02%; the viability at 48 h, 10 µM was 91.6 ± 5.67%; the viability at 48 h, 50 µM was 81.4 ± 5.23%; the viability at 48 h, 100 µM was determined as 63.2 ± 4.23%. Further, in series [4], the inhibition at 20 µM turned out to be 73.2%.
As for `COc1ccc([C@@H]2CC(=O)c3c(O)cc(OCC(=O)NCc4ccc(C(F)(F)F)cc4)cc3O2)cc1O` [Compound 4f, 2-[5-Hydroxy-2-(3-hydroxy-4-methoxyphenyl)-4-oxochroman-7-yloxy]-N-(4-trifluoro-methylbenzyl)acetamide], in series [1], the IC50 was determined as 9.37 ± 0.87 nM and the “Selective Index” value was determined as 305. In addition, the 50% inhibitory concentration (IC50) in series [2] amounted to 2860 ± 45 nM. In addition, the “inhibition type against AChE” value in series [5] was “mixed-type inhibition”. The Ki in series [5] (superscript b not defined, read-out: Ki b) was 4.67 nM. The Ki in series [5] (superscript c not defined, read-out: Ki c) worked out at 4.27 nM. Also, the Ki in series [5] (superscript d not defined, read-out: Ki d) came out at 3.28 nM. The “protective capability compared with quercetin” value in series [6] (5 µM, H2O2 200 µM) is listed as “slightly better protective capability than quercetin”. Moreover, the “cytotoxicity toward the PC12 cells” value in series [6] (1, 2.5 and 5 µM) is “no cytotoxicity”. The “protection of PC12 neurons against H2O2-induced cell death” value in series [6] (pretreatment at 1, 2.5 and 5 µM, H2O2 200 µM, p-value < 0.01) is listed as “significantly protected the neurons against cell death”. Further, in series [3], the viability at 48 h, 1 µM was 100 ± 4.76%; the viability at 48 h, 10 µM was determined as 95.8 ± 7.31%; the viability at 48 h, 50 µM worked out at 83.3 ± 5.44%; the viability at 48 h, 100 µM was 62.3 ± 5.78%. Moreover, in series [4], it took 8470 ± 440 nM to reach half-maximal inhibition (IC50) and the inhibition at 20 µM turned out to be 76.3%.
As for `COc1ccc(C2CC(=O)c3c(O)cc(OCC(=O)NCCc4ccccc4F)cc3O2)cc1O` (stereo not shown) [Compound 4q, N-[2-(2-Fluorophenyl)ethyl]-2-[5-hydroxy-2-(3-hydroxy-4-methoxyphenyl)-4-oxochroman-7-yloxy]-acetamide], in series [1], the IC50 is 20.2 ± 1.88 nM and the “Selective Index” value came out at 111. In addition, in series [2], the half-maximal inhibitory concentration (IC50) was found to be 2240 ± 77 nM. The ORAC in series [7] is listed as 2.5 μM of Trolox equivalent/μMof tested compound. In series [3], the viability at 48 h, 1 µM stood at 99 ± 5.28%; the viability at 48 h, 10 µM stood at 92 ± 6.41%; the viability at 48 h, 50 µM was 85.6 ± 3.95%; the viability at 48 h, 100 µM worked out at 66.5 ± 3.81%.
Take `COc1ccc(C2CC(=O)c3c(O)cc(OCC(=O)NCCc4cccc(Cl)c4)cc3O2)cc1O` (stereo not shown) [Compound 4r, N-[2-(3-Chlorophenyl)ethyl]-2-[5-hydroxy-2-(3-hydroxy-4-methoxyphenyl)-4-oxo-chroman-7-yloxy]acetamide]: in series [1], the IC50 was found to be 16.1 ± 0.79 nM and the “Selective Index” value is 188. Further, the half-maximal inhibitory concentration (IC50) in series [2] was determined as 3030 ± 84 nM. For the same compound, in series [7], the ORAC is given as 2.8 μM of Trolox equivalent/μMof tested compound. Also, in series [3], the viability at 48 h, 1 µM came out at 98.9 ± 5.2%; the viability at 48 h, 10 µM was 95.8 ± 6.29%; the viability at 48 h, 50 µM worked out at 83.8 ± 4.24%; the viability at 48 h, 100 µM stood at 62.2 ± 4.18%.
On to `COc1ccc(C2CC(=O)c3c(O)cc(OCC(=O)NCc4ccncc4)cc3O2)cc1O` (stereo not shown) [Compound 4s, 2-[5-Hydroxy-2-(3-hydroxy-4-methoxyphenyl)-4-oxochroman-7-yloxy]-N-pyridin-4-ylmethylacetamide], for which, in series [1], the IC50 was found to be 27.3 ± 0.99 nM and the “Selective Index” value turned out to be 68. For the same compound, the IC50 in series [2] is 1850 ± 55 nM. Moreover, the ORAC in series [7] is on record as 2.4 μM of Trolox equivalent/μMof tested compound. In series [3], the viability at 48 h, 1 µM turned out to be 101 ± 6.17%; the viability at 48 h, 10 µM worked out at 97.5 ± 5.36%; the viability at 48 h, 50 µM was 78.7 ± 3.46%; the viability at 48 h, 100 µM was 59.6 ± 3.61%. In series [4], the inhibition at 20 µM is 72%.
Take `COc1ccc(C2CC(=O)c3c(O)cc(OCC(=O)NCc4ccco4)cc3O2)cc1O` (stereo not shown) [Compound 4t, N-Furan-2-ylmethyl-2-[5-hydroxy-2-(3-hydroxy-4-methoxyphenyl)-4-oxochroman-7-yloxy]acetamide]: in series [1], the IC50 turned out to be 30.6 ± 4.5 nM and the “Selective Index” value amounted to 77. Besides, in series [2], the IC50 is 2350 ± 104 nM. For the same compound, the ORAC in series [7] is given as 2.6 μM of Trolox equivalent/μMof tested compound. In addition, in series [3], the viability at 48 h, 1 µM was 99.9 ± 4.52%; the viability at 48 h, 10 µM is 97.5 ± 3.65%; the viability at 48 h, 50 µM came out at 81.8 ± 4.06%; the viability at 48 h, 100 µM worked out at 61.2 ± 5.12%. Moreover, the inhibition at 20 µM in series [4] is 70.8%.
